Here are results for 16 compounds from ChEMBL document CHEMBL1122763, “Synthesis and biological activity of certain 3,4-disubstituted pyrazolo[3,4-d]pyrimidine nucleosides” (J Med Chem, 1984).

The nature of series [1]: (§1) Toxic level was determined; Non toxic. In kind it is functional.
The test system of series [2] is Leishmania tropica. Nature of the series: Concentration in the culture media that produced 50% inhibition of the leishmania tropica growth; Range is 76-190. In kind it is functional. The settings on record: read-out: ED50 (the source's name).
Series [3] concerns Vero. Description: Virus rating was determined by comparing cytopathic effect against vero cells after infection with Herpes simplex virus-1. In kind it is functional, Chlorocebus sabaeus.
The subject of series [4] is Vero. Nature of the series: Virus rating was determined by comparing cytopathic effect against vero cells after infection with Parainfluenza type 3 (para 3). In kind it is functional, Chlorocebus sabaeus.
Series [5] concerns Vero. Description: Virus rating was determined by comparing cytopathic effect against vero cells after infection with Vesicular stomatitis virus. In kind it is functional, Chlorocebus sabaeus.
The nature of series [6]: Toxic level was determined. In kind it is ADME.
Series [7] has as its system B16. Nature of the series: 50% inhibition of the tumor cell growth as compared to the untreated controls against B16 melanoma cells. In kind it is functional. The settings on record: Mus musculus, read-out: ID50 (the source's name).
Series [8] deals with Lewis lung carcinoma cell line. Description: 50% inhibition of the tumor cell growth as compared to the untreated controls against Lewis lung cells. In kind it is functional. As to conditions: Mus musculus, read-out: ID50 (the source's name).
The test system of series [9] is L1210. Nature of the series: Compound was evaluated for inhibition of L1210 leukemia cells. In kind it is functional. The settings on record: Mus musculus, read-out: ID50 (the source's name).
The test system of series [10] is P388. Nature of the series: Compound was evaluated for inhibition of P388 lymphoid neoplasm cells. In kind it is functional. The settings on record: Mus musculus, read-out: ID50 (the source's name).
The test system of series [11] is Vero. Description: Virus rating was determined by comparing cytopathic effect against vero cells after infection with Vaccinia virus. In kind it is functional, Chlorocebus sabaeus. On the technique in general: Protection from cytopathic effect is a common read-out in antiviral testing.
Series [12] deals with L1210. Description: Percent inhibition at a concentration 10 E -4 against L1210 leukemia cells. In kind it is functional, Mus musculus.
Series [13] concerns P388. Description: Percent inhibition at a concentration 10 E -4 against P388 lymphoid neoplasm cells. In kind it is functional, Mus musculus.
In series [14] the test system is Leishmania tropica. Description: Concentration in the culture media that produced 50% inhibition of the leishmania tropica growth. In kind it is functional. As to conditions: for EC50: read-out: ED50 (the source's name).
Series [15] deals with L1210. Nature of the series: Percent inhibition at a concentration 10 E -4 against L1210 leukemia cells; Inactive. In kind it is functional, cell-based. As to conditions: Mus musculus.
For series [16], the system named is B16. Nature of the series: 50% inhibition of the tumor cell growth as compared to the untreated controls against B16 melanoma cells; Inactive. In kind it is functional, cell-based. The settings on record: Mus musculus.
Series [17] relates to Lewis lung carcinoma cell line. Nature of the series: 50% inhibition of the tumor cell growth as compared to the untreated controls against Lewis lung cells; Inactive. In kind it is functional, cell-based. As to conditions: Mus musculus.
Series [18] concerns P388. Description: Percent inhibition at a concentration 10 E -4 against P388 lymphoid neoplasm cells; Inactive. In kind it is functional, cell-based. The settings on record: Mus musculus.
For series [19], the system named is L1210. Description: Compound was evaluated for inhibition against L1210 leukemia cells. In kind it is functional. As to conditions: Mus musculus, read-out: ID50 (the source's name).
Series [20] concerns P388. Description: Compound was evaluated for inhibition against P388 lymphoid neoplasm cells. In kind it is functional. The settings on record: Mus musculus, read-out: ID50 (the source's name).
For series [21], the system named is B16. Description: Percent inhibition of the tumor cell growth as compared to the untreated controls against B16 melanoma cells at a concentration of 10 E-4. In kind it is functional, Mus musculus.
Series [22] in a line: as §1. In kind it is ADME.
Series [23] relates to P388. Description: Inhibition at a concentration 10 E -4 against P388 lymphoid neoplasm cells; Inactive. In kind it is functional, cell-based. As to conditions: Mus musculus.

A word on the Inhibition: it is the percentage by which the read-out fell short of the control.

Calls of active or inactive are those of the source. The calls are words filed in the database; no cut-off is given here.

The compound `O=c1[nH]cnc2c1cnn2[C@@H]1O[C@H](CO)[C@@H](O)[C@H]1O` yielded a Toxic level in series [1] of 5 mM. Besides, the EC50 in [2] came out at 76000 nM. Further, the results for the Virus rating in [3], in series [4] and in [5] were 0, 0.2 and 0.3, respectively.

In [6], `Cl.N=C(N)c1nn(C2O[C@H](CO)[C@H](O)[C@@H]2O)c2ncnc(O)c12` (some centres not stated) gave a Toxic level of 5 mM. In addition, the IC50 in series [7] is 3800 nM; in [8] it was 6400 nM; in series [9], 230 nM; in series [10] it was 370 nM. Further, the Virus rating was 0.2 in series [3], 1.1 in series [4], 0.31 in series [11] and 0 in series [5].

With `O=c1[nH]cnc2c1c(Br)nn2C1O[C@H](CO)[C@@H](O)[C@H]1O` (some centres not stated), the Toxic level in series [6] was determined as 5 mM. In addition, the figures for the Inhibition in series [12] and in series [13] were 25% and 28%, respectively. Further, the IC50 in [14] (read-out: ID50 (the source's name)) was more than 15000 nM. Also, the Virus rating in [3] stood at 0.2; in series [4], 0.03.

Regarding `CNc1nn(C2O[C@H](CO)[C@@H](O)[C@H]2O)c2nc[nH]c(=O)c12` (some centres not stated), in [6], the Toxic level turned out to be 1.6 mM. Besides, in series [15], the inhibition entry is “inactive”. This compound displayed an Inhibition in [13] of 20%. Moreover, the Virus rating was 0 in series [3], 0.1 in [4] and 0.2 in series [11].

`CSc1nn(C2O[C@H](CO)[C@@H](O)[C@H]2O)c2nc[nH]c(=O)c12` (some centres not stated) gave a Toxic level in series [6] of 5 mM. Further, the inhibition result in series [15] is “inactive”. This compound displayed an Inhibition in series [13] of 16%. Further, the figures for the Virus rating in series [3], in series [4] and in series [11] were 0.16, 0.11 and 0, respectively.

`Nc1nn(C2O[C@H](CO)[C@@H](O)[C@H]2O)c2nc[nH]c(=O)c12` (some centres not stated) came in with a Toxic level in series [6] of 5 mM. The ID50 entry in series [16] and in series [17] was “inactive” each time. The inhibition result in series [15] and in series [18] was “inactive” throughout. Moreover, in series [14], the EC50 is more than 177000 nM. In addition, the Virus rating stood at 0.15 in [3], 0.3 in series [4], 0.45 in series [11] and 0 in [5].

In the case of `N#Cc1nn(C2O[C@H](CO)[C@@H](O)[C@H]2O)c2ncnc(N)c12` (some centres not stated), in series [9], the IC50 was 79 nM.

As for `NC(=S)c1nn(C2O[C@H](CO)[C@@H](O)[C@H]2O)c2nc[nH]c(=O)c12` (some centres not stated), the Toxic level in [6] came to 5 mM. Further, the IC50 in [7] is 16000 nM; in series [8], 2400 nM; in series [9], 360 nM; in series [10], 600 nM. For the same compound, the Virus rating came to 0 in series [3], 1.15 in series [4] and 0.4 in series [11].

In series [1], `N=C(NO)c1nn(C2O[C@H](CO)[C@@H](O)[C@H]2O)c2nc[nH]c(=O)c12` (some centres not stated) returned a Toxic level of 5 mM. For the same compound, the ID50 result in [15] and in series [18] was “inactive” in each case. In addition, the Virus rating in series [3] was 0.1; in series [4], 0.2; in [11], 0.12; in series [5], 0.35.

In [1], `N#Cc1nn(C2O[C@H](CO)[C@@H](O)[C@H]2O)c2nc[nH]c(=O)c12` (some centres not stated) gave a Toxic level of 5 mM. In addition, the IC50 in series [7] stood at 7000 nM; in series [8] it was 250000 nM; in series [19] it was 200 nM; in [20], 460 nM. In addition, the Virus rating was found to be 0.25 in series [3], 0.32 in series [4], 0.55 in [11] and 0 in series [5].

For the compound `OC[C@H]1OC(n2ncc3c(S)ncnc32)[C@H](O)[C@@H]1O` (some centres not stated), the EC50 in series [14] amounted to 72000 nM.

In series [6], `O=Nn1c(=O)c2c(O)ncnc2n1C1O[C@H](CO)[C@@H](O)[C@H]1O` (some centres not stated) yielded a Toxic level of 5 mM. Also, the IC50 in series [7] was 80000 nM; in series [8], 2500 nM; in series [9], 430 nM; in series [10] it was 160 nM. In addition, the EC50 in [14] is more than 160000 nM. Further, the Virus rating in [3] worked out at 0.35; in [4] it was 0.45; in [11], 0.8; in series [5], 0.

In turn, `Nc1ncnc2c1c(Br)nn2C1O[C@H](CO)[C@@H](O)[C@H]1O` (some centres not stated) had a Toxic level in [6] of 0.5 mM. In [12], this compound gave an Inhibition of 28%. In addition, the inhibition result in [18] is “inactive”. Further, the Virus rating stood at 0.4 in series [3], 0.2 in [4], 0.1 in series [11] and 0 in [5].

Consider `NC(=O)c1nn(C2O[C@H](CO)[C@@H](O)[C@H]2O)c2nc[nH]c(=O)c12` (some centres not stated), for which, in series [6], the Toxic level worked out at 5 mM. Moreover, the Inhibition in [21] came to 37%. Also, the IC50 in series [8] is 20000 nM; in series [9] it was 13000 nM; in series [10], 18000 nM. Moreover, the Virus rating in series [3] is 0; in [4], 0.3; in series [11] it was 0.4; in series [5], 0.

In series [22], `N#Cc1nn(C2O[C@H](CO)[C@@H](O)[C@H]2O)c2ncnc(S)c12` (some centres not stated) had a Toxic level of 5 mM. Moreover, the IC50 in [9] came out at 140 nM; in series [10], 320 nM. Besides, the Virus rating came to 1 in [3], 1.1 in [4], 1.24 in series [11] and 0.56 in [5].

In the case of `Nc1ncnc2c1c(N)nn2C1O[C@H](CO)[C@@H](O)[C@H]1O` (some centres not stated), the Toxic level in series [1] is 5 mM. Besides, the ID50 result in series [23] is “inactive”. In addition, the Virus rating in [3] is 1.3; in [4], 0.45; in series [11] it was 0.4; in series [5], 0.25.
